{
  "source": "patent EP0033503A2",
  "about": "“Medicaments with cytostatic activity and use of cyclic compounds, in which the heterocyclic N-ring atoms are substituted by several glycidyl groups, in pharmaceutical compositions” (Henkel Kommanditgesellschaft auf Aktien, priority 1980, dated 1981)",
  "test_system": "Tumorart P 388 (Leukämie)",
  "experiment": "Survival of mice bearing P 388 leukemia (NCI protocol 1200), T/C",
  "assay_type": "in vivo, Maus",
  "settings": "for response vs control in vivo at 50 mg/kg / response vs control in vivo at 100 mg/kg / response vs control in vivo at 200 mg/kg / response vs control in vivo at 25 mg/kg: Mus musculus; for Testergebnis in % T/C: repeat experiment; for response vs control in vivo at 25 mg/kg: P388, read-out: Testergebnis T/C (T/C-Wert), 25 mg/kg",
  "from_the_text": "Die nachfolgenden Versuche wurden durchgeführt nach Testvorschriften des National Cancer Institute Bethesda, Maryland 200014, veröffentlicht in Cancer Chemotherapy Reports\" Part. 3, September 1972, Vol. 3, Nr. 2. Als Wirksubstanz wurde 1,3-Diglycidyl-benzimidazolon des i vorstehenden Beispiels 1 verwendet. Die Substanz wurde als wäßrige, 1%ige Injektionslösung unmittelbar vor der Applikation frisch hergestellt.\nBei Mäusen wurde gemäß Protokoll 1200 (Seite 91, c.) die Tumorart P 388 (Leukämie) i.p. mit 10^6 Zellen/Maus gesetzt. Die unbehandelten Tiere hatten eine mittlere überlebensdauer von 9,9 Tagen.\nEs wird der Wirkstoff appliziert. Der Wirkstoff wird dabei in 9.Gaben in unterschiedlichen Versuchsreihen einmal zu je 200 mg/kg und in einer anderen zu 100 mg/kg und in einer dritten Versuchsreihe zu je 50 mg/kg verabreicht. In beiden Fällen wird eine signifikante Verlängerung der Lebensdauer der behandelten Testtiere gegenüber der Kontrollgruppe der nicht behandelten Tiere erzielt. […] Bei der Testgruppe mit der Dosis von 100 mg/kg beträgt die durchschnittliche Lebenserwartung der Versuchstiere 18 Tage, T/C 181 %. Die Gruppe mit der Dosis 50 mg/kg hatte eine durchschnittliche Lebenserwartung von 15,3 Tagen, T/C 154 %. […]",
  "key": {"[1]": {"settings": "P388, 50 mg/kg per single dose, first series, unit inferred, read-out: Testergebnis T/C (T/C-Wert)"}, "[2]": {"settings": "P388, 100 mg/kg per single dose, first series, unit inferred, read-out: Testergebnis T/C (T/C-Wert)"}, "[3]": {"settings": "P388, 50 mg/kg per single dose, 9 doses, first test series, read-out: Verlängerungsrate T/C (Testergebnis in % T/C)"}, "[4]": {"settings": "P388, 100 mg/kg per single dose, 9 doses, first test series, read-out: Verlängerungsrate T/C (Testergebnis in % T/C)"}, "[5]": {"settings": "P388, 200 mg/kg per single dose, 9 doses, first test series, read-out: Verlängerungsrate T/C (Testergebnis in % T/C)"}, "[6]": {"settings": "P388, read-out: Testergebnis T/C (T/C-Wert), 50 mg/kg per single dose, first series, unit inferred"}, "[7]": {"settings": "P388, read-out: Testergebnis T/C (T/C-Wert), 50 mg/kg, second series, unit inferred"}, "[8]": {"settings": "P388, read-out: Testergebnis T/C (T/C-Wert), 100 mg/kg per single dose, first series, unit inferred"}, "[9]": {"settings": "P388, read-out: Testergebnis T/C (T/C-Wert), 100 mg/kg, second series, unit inferred"}, "[10]": {"settings": "P388, read-out: Testergebnis T/C (T/C-Wert), 200 mg/kg, second series, unit inferred"}, "[11]": {"settings": "P388, read-out: Verlängerungsrate T/C (Testergebnis in % T/C), 50 mg/kg per single dose, 9 doses, first test series"}, "[12]": {"settings": "P388, read-out: Verlängerungsrate T/C (Testergebnis in % T/C), 100 mg/kg per single dose, 9 doses, first test series"}, "[13]": {"settings": "50 mg/kg per single dose, 9 doses"}, "[14]": {"settings": "50 mg/kg per single dose, 9 doses, first test series"}, "[15]": {"settings": "100 mg/kg per single dose, 9 doses"}, "[16]": {"settings": "100 mg/kg per single dose, 9 doses, first test series"}, "[17]": {"settings": "200 mg/kg per single dose, 9 doses, first test series"}},
  "note": "Read-outs that look alike come from different tables or passages of the source.",
  "data": [
    {"compound": "O=c1ccn(CC2CO2)c(=O)n1Cn1c(=O)ccn(CC2CO2)c1=O", "note": "(stereo not drawn) [[drawing] the 18th table r17]", "values": [
      {"measurement": "response vs control in vivo at 50 mg/kg", "setting": "[1]", "result": 115, "unit": "%"},
      {"measurement": "response vs control in vivo at 100 mg/kg", "setting": "[2]", "result": 139, "unit": "%"},
      {"measurement": "response vs control in vivo at 200 mg/kg", "setting": "P388, 200 mg/kg per single dose, first series, unit inferred, read-out: Testergebnis T/C (T/C-Wert)", "result": 186, "unit": "%"}
    ]},
    {"compound": "CCC1(c2ccccc2)C(=O)N(CC2CO2)C(=O)N1CC1CO1", "note": "(stereo not drawn) [R5 CH3-CH2-R6 C6H5-, Diglycidyl-5-phenyl-5-ethylhydantoin]", "values": [
      {"measurement": "Testergebnis in % T/C", "setting": "50 mg/kg", "result": 111, "unit": "%"},
      {"measurement": "Testergebnis in % T/C", "setting": "100 mg/kg", "result": 146, "unit": "%"},
      {"measurement": "Testergebnis in % T/C", "setting": "200 mg/kg", "result": 188, "unit": "%"},
      {"measurement": "response vs control in vivo at 50 mg/kg", "setting": "[3]", "result": 125, "unit": "%"},
      {"measurement": "response vs control in vivo at 100 mg/kg", "setting": "[4]", "result": 156, "unit": "%"},
      {"measurement": "response vs control in vivo at 200 mg/kg", "setting": "[5]", "result": 222, "unit": "%"}
    ]},
    {"compound": "O=c1c(Br)cn(CC2CO2)c(=O)n1CC1CO1", "note": "(stereo not drawn) [Diglycidyl-5-bromuracil, N,N'-Diglycidyl-5-bromuracil]", "values": [
      {"measurement": "response vs control in vivo at 50 mg/kg", "setting": "[1]", "result": 173, "unit": "%"},
      {"measurement": "response vs control in vivo at 100 mg/kg", "setting": "[2]", "result": 193, "unit": "%"}
    ]},
    {"compound": "CC(C)CC1C(=O)N(CC2CO2)C(=O)N(CC2CO2)C1=O", "note": "(stereo not drawn) [Beispiel 11, 1,3-Diglycidyl-5-isobutylbarbitursäure]", "values": [
      {"measurement": "response vs control in vivo at 25 mg/kg", "setting": "second series, unit inferred", "result": 129, "unit": "%"},
      {"measurement": "response vs control in vivo at 50 mg/kg", "setting": "[6]", "result": 133, "unit": "%"},
      {"measurement": "response vs control in vivo at 50 mg/kg", "setting": "[7]", "result": 158, "unit": "%"},
      {"measurement": "response vs control in vivo at 100 mg/kg", "setting": "[8]", "result": 158, "unit": "%"},
      {"measurement": "response vs control in vivo at 100 mg/kg", "setting": "[9]", "result": 184, "unit": "%"},
      {"measurement": "response vs control in vivo at 200 mg/kg", "setting": "P388, read-out: Testergebnis T/C (T/C-Wert), 200 mg/kg per single dose, first series, unit inferred", "result": 194, "unit": "%"},
      {"measurement": "response vs control in vivo at 200 mg/kg", "setting": "[10]", "result": 252, "unit": "%"}
    ]},
    {"compound": "O=c1n(CC2CO2)c2ccc(Cl)cc2n1CC1CO1", "note": "(stereo not drawn) [R2 -H R3 -Cl, N,N'-Digylcidyl-5-chlor-benzimidazolon]", "values": [
      {"measurement": "Testergebnis in % T/C", "setting": "25 mg/kg", "result": 156, "unit": "%"},
      {"measurement": "Testergebnis in % T/C", "setting": "50 mg/kg", "result": 181, "unit": "%"},
      {"measurement": "Testergebnis in % T/C", "setting": "100 mg/kg", "result": 92, "unit": "%"},
      {"measurement": "Testergebnis in % T/C", "setting": "12,5 mg/kg", "result": 145, "unit": "%"},
      {"measurement": "response vs control in vivo at 50 mg/kg", "setting": "[11]", "result": 191, "unit": "%"},
      {"measurement": "response vs control in vivo at 100 mg/kg", "setting": "[12]", "result": 234, "unit": "%"}
    ]},
    {"compound": "Diglycidyl-butylglykoluril [Beispiel 4]", "values": [
      {"measurement": "durchschnittliche Lebenserwartung der Versuchstiere", "setting": "[13]", "result": "16,3 Tage"},
      {"measurement": "Verlängerungsrate T/C (Testergebnis in % T/C)", "setting": "[14]", "result": 164, "unit": "%"},
      {"measurement": "durchschnittliche Lebenserwartung der Versuchstiere", "setting": "[15]", "result": "19,3 Tage"},
      {"measurement": "Verlängerungsrate T/C (Testergebnis in % T/C)", "setting": "[16]", "result": 194, "unit": "%"},
      {"measurement": "durchschnittliche Lebensdauer der Testgruppe", "setting": "200 mg/kg per single dose, 9 doses", "result": 27, "unit": "Tage"},
      {"measurement": "Verlängerungsrate T/C (Testergebnis in % T/C)", "setting": "[17]", "result": 272, "unit": "%"},
      {"measurement": "Versuchstiere, die die Testdauer von 30 Tagen überleben", "setting": "200 mg/kg per single dose, test group of 6 female mice", "result": "ein Versuchstier"}
    ]},
    {"compound": "CCC1(CC)C(=O)N(CC2CO2)C(=O)N(CC2CO2)C1=O", "note": "(stereo not drawn) [Beispiel 10, 1,3-Diglycidyl-5,5-diethylbarbitursäure]", "values": [
      {"measurement": "durchschnittliche Lebenserwartung der Versuchstiere", "setting": "[13]", "result": "15,3 Tage"},
      {"measurement": "durchschnittliche Lebenserwartung der Versuchstiere", "setting": "[15]", "result": 22, "unit": "Tage"},
      {"measurement": "response vs control in vivo at 25 mg/kg", "setting": "second series, unit inferred", "result": 94, "unit": "%"},
      {"measurement": "response vs control in vivo at 50 mg/kg", "setting": "[6]", "result": 147, "unit": "%"},
      {"measurement": "response vs control in vivo at 50 mg/kg", "setting": "[7]", "result": 111, "unit": "%"},
      {"measurement": "response vs control in vivo at 100 mg/kg", "setting": "[8]", "result": 211, "unit": "%"},
      {"measurement": "response vs control in vivo at 100 mg/kg", "setting": "[9]", "result": 158, "unit": "%"},
      {"measurement": "response vs control in vivo at 200 mg/kg", "setting": "[10]", "result": 230, "unit": "%"},
      {"measurement": "response vs control in vivo at 50 mg/kg", "setting": "[11]", "result": 147, "unit": "%"},
      {"measurement": "response vs control in vivo at 100 mg/kg", "setting": "[12]", "result": 211, "unit": "%"}
    ]},
    {"compound": "CC1(c2ccccc2)C(=O)N(CC2CO2)C(=O)N1CC1CO1", "note": "(stereo not drawn) [R5 CH3-R6 C6H5-, Diglycidyl-5-phenyl-5-methyl-hydantoin]", "values": [
      {"measurement": "response vs control in vivo at 50 mg/kg", "setting": "[3]", "result": 100, "unit": "%"},
      {"measurement": "response vs control in vivo at 100 mg/kg", "setting": "[4]", "result": 160, "unit": "%"},
      {"measurement": "response vs control in vivo at 200 mg/kg", "setting": "[5]", "result": 250, "unit": "%"}
    ]},
    {"compound": "O=c1n(CC2CO2)c2cc(Cl)c(Cl)cc2n1CC1CO1", "note": "(stereo not drawn) [R2 -Cl R3 -Cl, N,N-Diglycidyl-5,6-di-chlor-benzimidazolon]", "values": [
      {"measurement": "response vs control in vivo at 50 mg/kg", "setting": "[3]", "result": 158, "unit": "%"},
      {"measurement": "response vs control in vivo at 100 mg/kg", "setting": "[4]", "result": 120, "unit": "%"}
    ]},
    {"compound": "O=C1N(CC2CO2)C(=O)C(c2ccccc2)(c2ccccc2)N1CC1CO1", "note": "(stereo not drawn) [R5 C6H5-R6 C6H5-, Diglycidyl-diphenylhydantoin]", "values": [
      {"measurement": "Testergebnis in % T/C", "setting": "100 mg/kg", "result": 136, "unit": "%"},
      {"measurement": "Testergebnis in % T/C", "setting": "200 mg/kg", "result": 149, "unit": "%"},
      {"measurement": "response vs control in vivo at 100 mg/kg", "setting": "[4]", "result": 122, "unit": "%"},
      {"measurement": "response vs control in vivo at 200 mg/kg", "setting": "[5]", "result": 130, "unit": "%"}
    ]},
    {"compound": "CN1C(=O)N(CC2CO2)C2C1N(CC1CO1)C(=O)N2C", "note": "(stereo not drawn) [Beispiel 5, 3,6 Diglycidyl-1,4-dimethylglykoluril]", "values": [
      {"measurement": "Verlängerungsrate T/C (Testergebnis in % T/C)", "setting": "[14]", "result": 134, "unit": "%"},
      {"measurement": "durchschnittliche Lebenserwartung der Versuchstiere", "setting": "[15]", "result": "15,8 Tage"},
      {"measurement": "Verlängerungsrate T/C (Testergebnis in % T/C)", "setting": "[16]", "result": 157, "unit": "%"},
      {"measurement": "Verlängerungsrate T/C (Testergebnis in % T/C)", "setting": "[17]", "result": 190, "unit": "%"}
    ]}
  ]
}
